pIC50: −log10 of the molar value.
Legend:
AHR [1] = molecular target: T1, AHR (Homo sapiens, UniProt P35869); experiment: In vitro assay 1: antagonism in human cell line (transactivation assay, kynurenic acid prestimulated); details: Assay 1: AHR-luc Hum Antagonism IC50 [M], 150 μM kynurenic acid, 20 hours, firefly luciferase
T1 sequence (P35869 11-848): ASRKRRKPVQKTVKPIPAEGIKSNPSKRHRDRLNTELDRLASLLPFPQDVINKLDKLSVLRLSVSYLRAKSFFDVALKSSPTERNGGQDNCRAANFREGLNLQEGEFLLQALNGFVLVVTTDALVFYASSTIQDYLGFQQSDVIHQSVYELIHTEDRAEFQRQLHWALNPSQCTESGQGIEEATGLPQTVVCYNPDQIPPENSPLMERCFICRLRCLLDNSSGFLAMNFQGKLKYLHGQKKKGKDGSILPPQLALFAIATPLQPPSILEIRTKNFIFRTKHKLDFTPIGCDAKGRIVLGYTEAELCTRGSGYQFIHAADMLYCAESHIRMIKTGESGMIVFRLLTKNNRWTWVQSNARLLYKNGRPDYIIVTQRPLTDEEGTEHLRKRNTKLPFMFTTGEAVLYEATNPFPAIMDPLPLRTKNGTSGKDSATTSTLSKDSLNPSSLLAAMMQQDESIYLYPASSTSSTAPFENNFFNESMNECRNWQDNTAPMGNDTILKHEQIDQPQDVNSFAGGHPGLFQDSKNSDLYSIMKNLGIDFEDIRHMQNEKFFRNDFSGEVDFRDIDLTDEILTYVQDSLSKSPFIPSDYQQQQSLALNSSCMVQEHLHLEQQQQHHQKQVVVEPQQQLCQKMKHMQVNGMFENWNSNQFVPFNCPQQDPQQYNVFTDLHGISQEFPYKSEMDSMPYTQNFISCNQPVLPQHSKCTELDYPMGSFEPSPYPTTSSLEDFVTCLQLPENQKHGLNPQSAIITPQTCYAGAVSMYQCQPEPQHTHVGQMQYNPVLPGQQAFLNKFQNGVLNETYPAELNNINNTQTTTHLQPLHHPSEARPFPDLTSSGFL

AHR [2] = molecular target: T1, AHR; experiment: In vitro assay 2: agonism in human cell line (transactivation assay); details: for IC50: Assay 2: AHR-luc Hum Agonism IC50 [M], no kynurenic acid, 20 hours, firefly luciferase; for pIC50: read-out: Assay 2: AHR-luc Hum Agonism IC50, no kynurenic acid, 20 hours, firefly luciferase

SMILES	IC50 (AHR [1]) [M]	IC50 (AHR [2]) [M]	pIC50 (AHR [2])
C[C@H](O)[C@H](C)NC(=O)c1cc(-c2ccc(Cl)cc2)nn(-c2cc(Cl)cc(Cl)c2)c1=O (relative stereo) [Example 312, 6-(4-Chlorophenyl)-2-(3,5-dichlorophenyl)-N-[(2S,3S)-3-hydroxybutan-2-yl]-3-oxo-2,3-dihydropyridazine-4-carboxamide]	5.88e-07	> 2e-05	
O=C(N[C@H]1COC[C@@H]1O)c1cc(-c2ccc(N3CCOCC3)cc2)nn(-c2cccc(F)c2)c1=O (relative stereo) [Example 378, rel-2-(3-fluorophenyl)-N-[(3R,4S)-4-hydroxytetrahydrofuran-3-yl]-6-[4-(morpholin-4-yl)phenyl]-3-oxo-2,3-dihydropyridazine-4-carboxamide]	2.48e-07	> 2e-05	
CN1C[C@H](O)[C@H](NC(=O)c2cc(-c3ccc(Cl)cc3)nn(-c3cccc(F)c3)c2=O)C1 (relative stereo) [Example 388, 6-(4-chlorophenyl)-2-(3-fluorophenyl)-N-[cis-4-hydroxy-1-methylpyrrolidin-3-yl]-3-oxo-2,3-dihydropyridazine-4-carboxamide]	6.9e-07	> 2e-05	
COCC(O)CNC(=O)c1cc(-c2ccc(Cl)cc2)nn(-c2cccc(F)c2)c1=O (single isomer, unassigned) [Example 32, 6-(4-Chlorophenyl)-2-(3-fluorophenyl)-N-(2-hydroxy-3-methoxypropyl)-3-oxo-2,3-dihydropyridazine-4-carboxamide]	1.81e-07	> 2e-05	
COCC(O)CNC(=O)c1cc(-c2ccc(Cl)cc2)nn(-c2cccc(F)c2)c1=O (single isomer, unassigned) [Example 33, 6-(4-Chlorophenyl)-2-(3-fluorophenyl)-N-(2-hydroxy-3-methoxypropyl)-3-oxo-2,3-dihydropyridazine-4-carboxamide]	2.11e-07		< 4.70
O=C(NC(CO)C1CCOC1)c1cc(-c2ccc(Cl)cc2)nn(-c2cccc(F)c2)c1=O (single isomer, unassigned) [Example 39]	2.76e-08	> 2e-05	
O=C(NC(CO)C1CCOC1)c1cc(-c2ccc(Cl)cc2)nn(-c2cccc(F)c2)c1=O (single isomer, unassigned) [Example 40, 6-(4-Chlorophenyl)-2-(3-fluorophenyl)-N-[2-hydroxy-1-(tetrahydrofuran-3-yl)ethyl]-3-oxo-2,3-dihydropyridazine-4-carboxamide]	1.17e-07		< 4.70
O=C(NC(CO)C1CCOC1)c1cc(-c2ccc(Cl)cc2)nn(-c2cccc(F)c2)c1=O (single isomer, unassigned) [Example 41, 6-(4-Chlorophenyl)-2-(3-fluorophenyl)-N-[2-hydroxy-1-(tetrahydrofuran-3-yl)ethyl]-3-oxo-2,3-dihydropyridazine-4-carboxamide]	2.15e-07		< 4.70
O=C(NC(CO)C1CCOC1)c1cc(-c2ccc(Cl)cc2)nn(-c2cccc(F)c2)c1=O (single isomer, unassigned) [Example 42, 6-(4-Chlorophenyl)-2-(3-fluorophenyl)-N-[2-hydroxy-1-(tetrahydrofuran-3-yl)ethyl]-3-oxo-2,3-dihydropyridazine-4-carboxamide]	3.44e-07		< 4.70
O=C(NCC(O)C(F)(F)F)c1cc(-c2ccc(Cl)cc2)nn(-c2cc(F)cc(F)c2)c1=O (single isomer, unassigned) [Example 46, 6-(4-Chlorophenyl)-2-(3,5-difluorophenyl)-3-oxo-N-(3,3,3-trifluoro-2-hydroxypropyl)-2,3-dihydropyridazine-4-carboxamide]	5.64e-08		< 4.70
Cc1ccc(-c2cc(C(=O)NCC(O)C(F)(F)F)c(=O)n(-c3cc(F)cc(F)c3)n2)cc1 (single isomer, unassigned) [Example 53, 2-(3,5-Difluorophenyl)-6-(4-methylphenyl)-3-oxo-N-(3,3,3-trifluoro-2-hydroxypropyl)-2,3-dihydropyridazine-4-carboxamide]	8.85e-09	> 2e-05	
O=C(NCC(O)C(F)(F)F)c1cc(-c2ccc(Cl)cc2)nn(-c2cccc(Cl)c2)c1=O (single isomer, unassigned) [Example 63, 2-(3-Chlorophenyl)-6-(4-chlorophenyl)-3-oxo-N-(3,3,3-trifluoro-2-hydroxypropyl)-2,3-dihydropyridazine-4-carboxamide]	8.99e-08	> 2e-05	
O=C(NCC(O)C(F)(F)F)c1cc(-c2ccc(Cl)cc2)nn(-c2cccc(Cl)c2)c1=O (single isomer, unassigned) [Example 64, 2-(3-Chlorophenyl)-6-(4-chlorophenyl)-3-oxo-N-(3,3,3-trifluoro-2-hydroxypropyl)-2,3-dihydropyridazine-4-carboxamide]	3.66e-07		< 4.70
CC(C)C(O)CNC(=O)c1cc(-c2ccc(Cl)cc2)nn(-c2cccc(Cl)c2)c1=O (single isomer, unassigned) [Example 68, 2-(3-Chlorophenyl)-6-(4-chlorophenyl)-N-(2-hydroxy-3-methylbutyl)-3-oxo-2,3-dihydropyridazine-4-carboxamide]	3.7e-07	> 2e-05	
CC(C)C(O)CNC(=O)c1cc(-c2ccc(Cl)cc2)nn(-c2cccc(Cl)c2)c1=O (single isomer, unassigned) [Example 69, 2-(3-Chlorophenyl)-6-(4-chlorophenyl)-N-(2-hydroxy-3-methylbutyl)-3-oxo-2,3-dihydropyridazine-4-carboxamide]	4.41e-07		< 4.70
O=C(NCC(O)C(F)(F)F)c1cc(-c2ccc(Cl)cc2)nn(-c2ccccc2)c1=O (single isomer, unassigned) [Example 77, 6-(4-chlorophenyl)-3-oxo-2-phenyl-N-(3,3,3-trifluoro-2-hydroxypropyl)-2,3-dihydropyridazine-4-carboxamide]	7.28e-08	> 2e-05	
O=C(NCC(O)C(F)(F)F)c1cc(-c2ccc(Cl)cc2)nn(-c2ccccc2)c1=O (single isomer, unassigned) [Example 78, 6-(4-chlorophenyl)-3-oxo-2-phenyl-N-(3,3,3-trifluoro-2-hydroxypropyl)-2,3-dihydropyridazine-4-carboxamide]	2.66e-07		< 4.70
O=C(N[C@@H]1CCCC[C@@H]1O)c1cc(-c2ccc(Cl)cc2)nn(-c2cccc(F)c2)c1=O (single isomer, unassigned) [Example 105, 6-(4-Chlorophenyl)-2-(3-fluorophenyl)-N-(cis-2-hydroxycyclohexyl)-3-oxo-2,3-dihydropyridazine-4-carboxamide]	1.51e-07		< 4.70
COc1ccc(-c2cc(C(=O)N[C@@H]3CCCC[C@@H]3O)c(=O)n(-c3cccc(F)c3)n2)cc1 (single isomer, unassigned) [Example 108, 2-(3-Fluorophenyl)-N-(cis-2-hydroxycyclohexyl)-6-(4-methoxyphenyl)-3-oxo-2,3-dihydropyridazine-4-carboxamide]	2.4e-07		< 4.70
O=C(N[C@H]1CCCC[C@@H]1O)c1cc(-c2ccc(Cl)cc2)nn(-c2cccc(F)c2)c1=O (single isomer, unassigned) [Example 119, 6-(4-Chlorophenyl)-2-(3-fluorophenyl)-N-(trans-2-hydroxycyclohexyl)-3-oxo-2,3-dihydropyridazine-4-carboxamide]	4.51e-07		< 4.70
O=C(NCC(O)C(F)(F)F)c1cc(-c2ccc(OC(F)F)cc2)nn(-c2cccc(F)c2)c1=O (single isomer, unassigned) [Example 121, 6-[4-(Difluoromethoxy)phenyl]-2-(3-fluorophenyl)-3-oxo-N-(3,3,3-trifluoro-2-hydroxypropyl)-2,3-dihydropyridazine-4-carboxamide]	3.42e-08	> 2e-05	
O=C(NCC(O)C(F)(F)F)c1cc(-c2ccc(OC(F)F)cc2)nn(-c2cccc(F)c2)c1=O (single isomer, unassigned) [Example 122, 6-[4-(Difluoromethoxy)phenyl]-2-(3-fluorophenyl)-3-oxo-N-(3,3,3-trifluoro-2-hydroxypropyl)-2,3-dihydropyridazine-4-carboxamide]	1.38e-07		< 4.70
O=C(N[C@H]1CCC[C@@H]1O)c1cc(-c2ccc(Cl)cc2)nn(-c2cccc(F)c2)c1=O (single isomer, unassigned) [Example 125, 6-(4-Chlorophenyl)-2-(3-fluorophenyl)-N-(trans-2-hydroxycyclopentyl)-3-oxo-2,3-dihydropyridazine-4-carboxamide]	1.86e-07		< 4.70

Reference: patent publication US11040035B2, “3-oxo-2,6-diphenyl-2,3-dihydropyridazine-4-carboxamides” (BAYER PHARMA AKTIENGESELLSCHAFT, priority 2016, dated 2021)
